According to patent publication US20260078103A1, “ISOQUINOLONES AS PI3K INHIBITORS” (OnKure, Inc., priority 2022, published 2026):
Where two headings read alike, the source gives them in different places.

Tests used:
Format in all cases: cell-based
[1] = test system: phosphorylation of AKT (pAKT) in T47D cells expressing mutant PI3Ka (H1047R); test: In vitro cell pAKT (Ser473) HTRF, T47D cells; conditions: cellular pAKT, T47D cells, mutant PI3Ka (H1047R), 6 hours, read-out: Avg T-47D IC50
Summary of the method: (§1)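 pAKT (Ser473) was quantified by HTRF in lysates from cells exposed 6 h at 37 °C to 10-point compound series, with T47D in insulin-supplemented RPMI/10% FBS and SKBR3 in McCoy's 5a/10% FBS. Controls: 0.1% DMSO (high) and 10 uM alpelisib (low). IC50 from sigmoidal curve fitting.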

[2] = test system: T47D cells expressing mutant PI3Ka (H1047R); test: In vitro cell proliferation, T47D cells (CellTiter-Glo); conditions: inhibition of proliferation, read-out: Avg T-47D EC50
Summary of the method: (§2)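 EC50 values derive from a four-parameter logistic fit of luminescence-based (CellTiter-Glo) inhibition, referenced to 0.1% DMSO and 10 uM Alpelisib controls. Compound exposure lasted 72 h at 37 °C.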

[3] = test system: phosphorylation of AKT (pAKT) in SKBR3 cells express WT PI3Ka; test: In vitro cell pAKT (Ser473) HTRF, SKBR3 cells; conditions: cellular pAKT
Summary of the method: as §1

[4] = test system: SKBR3 cells express WT PI3Ka; test: In vitro cell proliferation, SKBR3 cells (CellTiter-Glo); conditions: inhibition of proliferation
Summary of the method: as §2

SMILES	IC50 ([1]; Homo sapiens, T47D, 6 h) [nM]	EC50 ([2]; Homo sapiens, T47D, 72 h) [nM]	IC50 ([3]; Homo sapiens, SK-BR-3, 6 h) [nM]	EC50 ([4]; Homo sapiens, SK-BR-3, 72 h) [nM]	IC50 [1] [nM]	EC50 ([2]; 72 hours) [nM]	IC50 ([3]; 6 hours) [nM]	EC50 ([4]; 72 hours) [nM]
Cc1cc([C@@H](C)Nc2ccccc2C(=O)O)c2cc(N3CCC(C)(O)CC3)n(C)c(=O)c2c1 [Example 260]	2000 to 15000	500 to 2000	> 15000	> 15000				
Cc1cc([C@@H](C)Nc2ccccc2C(=O)O)c2cc(N3CCN(CCC(F)(F)F)CC3)n(C)c(=O)c2c1 [Example 264]					1 to 500	1 to 500	> 15000	> 15000
Cc1cc([C@@H](C)Nc2ccccc2C(=O)O)c2cc(-c3cnc4ccoc4c3)n(C)c(=O)c2c1 [Example 265]	1 to 500	1 to 500	> 15000	> 15000				
Cc1cc([C@@H](C)Nc2ccc(F)cc2C(=O)O)c2cc(-c3cnc(C(C)(C)F)c(F)c3)n(C)c(=O)c2c1 [Example 269]					1 to 500	1 to 500	2000 to 15000	2000 to 15000
Cc1cc([C@@H](C)Nc2ccccc2C(=O)O)c2cc(-c3cnn(C(C)(C)C#N)c3)n(C)c(=O)c2c1 [Example 273]	1 to 500	500 to 2000	> 15000	> 15000				
Cc1cc([C@@H](C)Nc2cnsc2C(=O)O)c2cc(N3CCN(CC(F)(F)F)CC3)n(C)c(=O)c2c1 [Example 274]	2000 to 15000	2000 to 15000	> 15000	> 15000				
Cc1cc([C@@H](C)Nc2ccccc2C(=O)O)c2cc(-c3cnc(C)cn3)n(C)c(=O)c2c1 [Example 275]	1 to 500	1 to 500	> 15000	> 15000				
Cc1cc([C@@H](C)Nc2ccccc2C(=O)O)c2cc(-c3cnc(C(C)C)nc3)n(C)c(=O)c2c1 [Example 276]	1 to 500	1 to 500	> 15000	> 15000				
COC(C)(C)c1ncc(-c2cc3c([C@@H](C)Nc4ccccc4C(=O)O)cc(C)cc3c(=O)n2C)cc1F [Example 277]					1 to 500	1 to 500	2000 to 15000	2000 to 15000
Cc1cc([C@@H](C)Nc2ccccc2C(=O)O)c2cc(-c3cnc(OC4CC4)c(F)c3)n(C)c(=O)c2c1 [Example 281]	1 to 500	1 to 500	> 15000	> 15000				
Cc1cc([C@@H](C)Nc2ccccc2C(=O)O)c2cc(-c3cnc(COC(F)(F)F)c(F)c3)n(C)c(=O)c2c1 [Example 282]	1 to 500	1 to 500	> 15000	2000 to 15000				
Cc1cc([C@@H](C)Nc2ccccc2C(=O)O)c2cc(-c3cnc(C(C)(C)F)nc3)n(C)c(=O)c2c1 [Example 283]	1 to 500	1 to 500	> 15000	> 15000				
CCOc1ncc(-c2cc3c([C@@H](C)Nc4ccccc4C(=O)O)cc(C)cc3c(=O)n2C)s1 [Example 284]	1 to 500	1 to 500	2000 to 15000	> 15000				
Cc1cc([C@@H](C)Nc2ccccc2C(=O)O)c2c(F)c(N3CCN(CC(F)(F)F)CC3)n(C)c(=O)c2c1 [Example 285]	1 to 500	1 to 500	2000 to 15000	2000 to 15000				
Cc1cc([C@@H](C)Nc2ccccc2C(=O)O)c2cc(-c3cnc(C(F)(F)F)nc3)n(C)c(=O)c2c1 [Example 288]	1 to 500	1 to 500	> 15000	> 15000				
Cc1cc([C@@H](C)Nc2ccccc2C(=O)O)c2cc(-c3cnc(C(F)F)c(F)c3)n(C)c(=O)c2c1 [Example 290]	1 to 500	1 to 500	> 15000	> 15000				
Cc1cc([C@@H](C)Nc2ccccc2C(=O)O)c2cc(-c3cnc(C(C)(F)F)c(F)c3)n(C)c(=O)c2c1 [Example 291]	1 to 500	1 to 500	> 15000	> 15000				
Cc1cc([C@@H](C)Nc2cccc(C)c2C(=O)O)c2cc(N3CCN(CC(F)(F)F)CC3)n(C)c(=O)c2c1 [Example 297]	2000 to 15000	2000 to 15000	> 15000	> 15000				

The remaining lines, values ahead:

IC50 ([1]; Homo sapiens, T47D, 6 h) [nM]	EC50 ([2]; Homo sapiens, T47D, 72 h) [nM]	IC50 ([3]; Homo sapiens, SK-BR-3, 6 h) [nM]	EC50 ([4]; Homo sapiens, SK-BR-3, 72 h) [nM]	IC50 [1] [nM]	EC50 ([2]; 72 hours) [nM]	IC50 ([3]; 6 hours) [nM]	EC50 ([4]; 72 hours) [nM]	SMILES
1 to 500	1 to 500	> 15000	> 15000					Cc1cc([C@@H](C)Nc2ccccc2C(=O)O)c2cc(-c3cnc(C(C)(C)F)c(F)c3)n(C)c(=O)c2c1 [Example 268]
1 to 500	500 to 2000	> 15000	> 15000					Cc1cc([C@@H](C)Nc2ccccc2C(=O)O)c2cc(-c3cnc4occc4c3)n(C)c(=O)c2c1 [Example 270]
				1 to 500	1 to 500	2000 to 15000	2000 to 15000	Cc1cc([C@@H](C)Nc2ccc(F)c(F)c2C(=O)O)c2cc(N3CCN(CC(F)(F)F)CC3)n(C)c(=O)c2c1 [Example 272]
				1 to 500	1 to 500	> 15000	> 15000	Cc1cc([C@@H](C)Nc2ccccc2C(=O)O)c2cc(-c3cnc(CF)c(F)c3)n(C)c(=O)c2c1 [Example 289]
1 to 500	1 to 500	> 15000	> 15000					Cc1cc([C@@H](C)Nc2ccccc2C(=O)O)c2cc(-c3cnc(C(F)(F)F)c(F)c3)n(C)c(=O)c2c1 [Example 295]
1 to 500	1 to 500	> 15000	> 15000					Cc1cc([C@@H](C)Nc2ccccc2C(=O)O)c2cc(C3CCN(CC(F)(F)F)CC3)n(C)c(=O)c2c1 [Example 296]
1 to 500	1 to 500	2000 to 15000	2000 to 15000					C#Cc1ccc(N[C@H](C)c2cc(C)cc3c(=O)n(C)c(N4CCN(CC(F)(F)F)CC4)cc23)c(C(=O)O)n1 [Example 299]
500 to 2000	500 to 2000	> 15000	> 15000					COc1cccc(N[C@H](C)c2cc(C)cc3c(=O)n(C)c(N4CCN(CC(F)(F)F)CC4)cc23)c1C(=O)O [Example 300]
